Experimental data taken from ChEMBL document CHEMBL4219190, “Studies on synthesis of novel pyrido[2,3-d]pyrimidine derivatives, evaluation of their antimicrobial activity and molecular docking” (Bioorg Med Chem Lett, 2018).
≈ marks a conversion by molar mass, not a printed value. Calls of active or inactive are those of the source. No cut-off for these calls is given here.

Legend:
Micrococcus luteus [1] = test: Antibacterial activity against Micrococcus luteus MTCC 2470 after 24 hrs by well diffusion method; type: functional
Staphylococcus aureus [2] = test: Antibacterial activity against Staphylococcus aureus MTCC 96 after 24 hrs by well diffusion method; type: functional
Staphylococcus aureus [3] = test: Antibacterial activity against Staphylococcus aureus MLS16 MTCC 2940 after 24 hrs by well diffusion method; type: functional
Pseudomonas aeruginosa [4] = test: Antibacterial activity against Pseudomonas aeruginosa MTCC 2453 after 24 hrs by well diffusion method; type: functional
Escherichia coli [5] = test: Antibacterial activity against Escherichia coli MTCC 739 after 24 hrs by well diffusion method; type: functional
Raoultella planticola [6] = test: Antibacterial activity against Klebsiella planticola MTCC 530 after 24 hrs by well diffusion method; type: functional
Bacillus subtilis [7] = test: Antibacterial activity against Bacillus subtilis MTCC 121 after 24 hrs by well diffusion method; type: functional
Micrococcus luteus [8] = test: Bactericidal activity against Micrococcus luteus MTCC 2470 incubated for 24 hrs followed by transfer of microbial suspension to Mueller Hinton agar plates and measured after 24 hrs post transfer; type: functional
Bacillus subtilis [9] = test: Antibiofilm activity against Bacillus subtilis MTCC 121 after 24 hrs by crystal violet staining-based assay; type: functional, organism-based
Pseudomonas aeruginosa [10] = test: Antibiofilm activity against Pseudomonas aeruginosa MTCC 2453 after 24 hrs by crystal violet staining-based assay; type: functional, organism-based
Bacillus subtilis [11] = test: Bactericidal activity against Bacillus subtilis MTCC 121 incubated for 24 hrs followed by transfer of microbial suspension to Mueller Hinton agar plates and measured after 24 hrs post transfer; type: functional
Escherichia coli [12] = test: Bactericidal activity against Escherichia coli MTCC 739 incubated for 24 hrs followed by transfer of microbial suspension to Mueller Hinton agar plates and measured after 24 hrs post transfer; type: functional
Staphylococcus aureus [13] = test: Bactericidal activity against Staphylococcus aureus MTCC 96 incubated for 24 hrs followed by transfer of microbial suspension to Mueller Hinton agar plates and measured after 24 hrs post transfer; type: functional; conditions: MTCC 96, 24 h
Staphylococcus aureus [14] = test: Antibiofilm activity against Staphylococcus aureus MTCC 96 after 24 hrs by crystal violet staining-based assay; type: functional, organism-based; conditions: Staphylococcus aureus, MTCC 96, 24 h; read-out: IC50
Raoultella planticola [15] = test: Bactericidal activity against Klebsiella planticola MTCC 530 incubated for 24 hrs followed by transfer of microbial suspension to Mueller Hinton agar plates and measured after 24 hrs post transfer; type: functional; conditions: MTCC 530, 24 h
Staphylococcus aureus [16] = test: Bactericidal activity against Staphylococcus aureus MLS16 MTCC 2940 incubated for 24 hrs followed by transfer of microbial suspension to Mueller Hinton agar plates and measured after 24 hrs post transfer; type: functional
Pseudomonas aeruginosa [17] = test: Bactericidal activity against Pseudomonas aeruginosa MTCC 2453 incubated for 24 hrs followed by transfer of microbial suspension to Mueller Hinton agar plates and measured after 24 hrs post transfer; type: functional
Raoultella planticola [18] = test: Antibiofilm activity against Klebsiella planticola MTCC 530 after 24 hrs by crystal violet staining-based assay; type: functional, organism-based; conditions: Klebsiella planticola, MTCC 530, 24 h; read-out: IC50
Staphylococcus aureus [19] = test: Antibiofilm activity against Staphylococcus aureus MLS16 MTCC 2940 after 24 hrs by crystal violet staining-based assay; type: functional, organism-based
Pichia kudriavzevii [20] = test: Fungicidal activity against Candida krusei MTCC 3020 incubated for 24 hrs followed by transfer of microbial suspension to Sabouraud dextrose agar plates and measured after 24 hrs post transfer; type: functional; conditions: MTCC 3020, 24 h
Candida albicans [21] = test: Antifungal activity against Candida albicans MTCC 4748 after 24 hrs by well diffusion method; type: functional
Candida albicans [22] = test: Antifungal activity against Candida albicans MTCC 1637 after 24 hrs by well diffusion method; type: functional
Candida albicans [23] = test: Antifungal activity against Candida albicans MTCC 3017 after 24 hrs by well diffusion method; type: functional; conditions: MTCC 3017, 24 h
Candida albicans [24] = test: Antifungal activity against Candida albicans MTCC 7315 after 24 hrs by well diffusion method; type: functional; conditions: MTCC 7315, 24 h
Candida parapsilosis [25] = test: Antifungal activity against Candida parapsilosis MTCC 1744 after 24 hrs by well diffusion method; type: functional
Pichia kudriavzevii [26] = test: Antifungal activity against Candida krusei MTCC 3020 after 24 hrs by well diffusion method; type: functional; conditions: MTCC 3020, 24 h
Candida albicans [27] = test: Fungicidal activity against Candida albicans MTCC 1637 incubated for 24 hrs followed by transfer of microbial suspension to Sabouraud dextrose agar plates and measured after 24 hrs post transfer; type: functional
Candida albicans [28] = test: Antifungal activity against Candida albicans MTCC 3018 after 24 hrs by well diffusion method; type: functional
[Candida] aaseri [29] = Fungicidal activity against Candida aaseri MTCC 1962 incubated for 24 hrs followed by transfer of microbial suspension to Sabouraud dextrose agar plates and measured after 24 hrs post transfer; type: functional; conditions: Yamadazyma aaseri, MTCC 1962, 24 h
Nakaseomyces glabratus [30] = test: Fungicidal activity against Candida glabrata MTCC 3019 incubated for 24 hrs followed by transfer of microbial suspension to Sabouraud dextrose agar plates and measured after 24 hrs post transfer; type: functional; conditions: MTCC 3019, 24 h
Candida albicans [31] = test: Antifungal activity against Candida albicans MTCC 3958 after 24 hrs by well diffusion method; type: functional
Pichia sporocuriosa [32] = test: Fungicidal activity against Issatchenkia hanoiensis MTCC 4755 incubated for 24 hrs followed by transfer of microbial suspension to Sabouraud dextrose agar plates and measured after 24 hrs post transfer; type: functional; conditions: MTCC 4755, 24 h
Candida albicans [33] = test: Fungicidal activity against Candida albicans MTCC 3958 incubated for 24 hrs followed by transfer of microbial suspension to Sabouraud dextrose agar plates and measured after 24 hrs post transfer; type: functional
Candida albicans [34] = test: Antifungal activity against Candida albicans MTCC 183 after 24 hrs by well diffusion method; type: functional; conditions: MTCC 183, 24 h
Candida albicans [35] = test: Fungicidal activity against Candida albicans MTCC 3018 incubated for 24 hrs followed by transfer of microbial suspension to Sabouraud dextrose agar plates and measured after 24 hrs post transfer; type: functional
Pichia sporocuriosa [36] = test: Antifungal activity against Issatchenkia hanoiensis MTCC 4755 after 24 hrs by well diffusion method; type: functional; conditions: MTCC 4755, 24 h
Candida albicans [37] = test: Fungicidal activity against Candida albicans MTCC 183 incubated for 24 hrs followed by transfer of microbial suspension to Sabouraud dextrose agar plates and measured after 24 hrs post transfer; type: functional; conditions: MTCC 183, 24 h
Candida albicans [38] = test: Antifungal activity against Candida albicans MTCC 227 after 24 hrs by well diffusion method; type: functional; conditions: MTCC 227, 24 h
Candida albicans [39] = test: Fungicidal activity against Candida albicans MTCC 3017 incubated for 24 hrs followed by transfer of microbial suspension to Sabouraud dextrose agar plates and measured after 24 hrs post transfer; type: functional; conditions: MTCC 3017, 24 h
Candida albicans [40] = test: Antifungal activity against Candida albicans MTCC 854 after 24 hrs by well diffusion method; type: functional; conditions: MTCC 854, 24 h
Candida parapsilosis [41] = test: Fungicidal activity against Candida parapsilosis MTCC 1744 incubated for 24 hrs followed by transfer of microbial suspension to Sabouraud dextrose agar plates and measured after 24 hrs post transfer; type: functional
Candida albicans [42] = test: Fungicidal activity against Candida albicans MTCC 4748 incubated for 24 hrs followed by transfer of microbial suspension to Sabouraud dextrose agar plates and measured after 24 hrs post transfer; type: functional
Candida albicans [43] = test: Fungicidal activity against Candida albicans MTCC 7315 incubated for 24 hrs followed by transfer of microbial suspension to Sabouraud dextrose agar plates and measured after 24 hrs post transfer; type: functional; conditions: MTCC 7315, 24 h
Candida albicans [44] = test: Fungicidal activity against Candida albicans MTCC 227 incubated for 24 hrs followed by transfer of microbial suspension to Sabouraud dextrose agar plates and measured after 24 hrs post transfer; type: functional; conditions: MTCC 227, 24 h
Nakaseomyces glabratus [45] = test: Antifungal activity against Candida glabrata MTCC 3019 after 24 hrs by well diffusion method; type: functional; conditions: MTCC 3019, 24 h
[Candida] aaseri [46] = Antifungal activity against Candida aaseri MTCC 1962 after 24 hrs by well diffusion method; type: functional; conditions: Yamadazyma aaseri, MTCC 1962, 24 h
Candida albicans [47] = test: Fungicidal activity against Candida albicans MTCC 854 incubated for 24 hrs followed by transfer of microbial suspension to Sabouraud dextrose agar plates and measured after 24 hrs post transfer; type: functional; conditions: MTCC 854, 24 h

For `CCNC(=O)c1nc(-c2ccccc2)c2c(C(F)(F)F)cc(-c3ccccc3)nc2n1`, the MIC (Micrococcus luteus [1]) was “inactive”, the MIC (Staphylococcus aureus [2]) was “inactive” and the MIC (Staphylococcus aureus [3]) was “inactive”. The MIC (Pseudomonas aeruginosa [4]) was “inactive”, the MIC (Escherichia coli [5]) was “inactive” and the MIC (Raoultella planticola [6]; MTCC 530, 24 h) was 31.2 µg/mL (≈ 73.9 µM). The MIC (Bacillus subtilis [7]) was “inactive”.

In the case of `O=C(NCc1ccco1)c1nc(-c2ccccc2)c2c(C(F)(F)F)cc(-c3ccccc3)nc2n1`, the MIC (Micrococcus luteus [1]) is reported as “inactive”, the MIC (Staphylococcus aureus [2]; MTCC 96, 24 h) is reported as 7.8 µg/mL (≈ 16.4 µM) and the MBC (Micrococcus luteus [8]) is reported as “inactive”. For the same compound, the MIC (Staphylococcus aureus [3]) was “inactive”, the MIC (Pseudomonas aeruginosa [4]) was “inactive” and the MIC (Escherichia coli [5]) was “inactive”. The IC50 (Bacillus subtilis [9]) was “Not Active”, the IC50 (Pseudomonas aeruginosa [10]) was “Not Active” and the MBC (Bacillus subtilis [11]) was “inactive”. The MIC (Raoultella planticola [6]; MTCC 530, 24 h) was 15.6 µg/mL (≈ 32.9 µM), the MBC (Escherichia coli [12]) was “inactive” and the MBC (Staphylococcus aureus [13]) was 15.6 µg/mL (≈ 32.9 µM). The IC50 (Staphylococcus aureus [14]) was 2.7 µg/mL (≈ 5.69 µM), the MIC (Bacillus subtilis [7]) was “inactive” and the MBC (Raoultella planticola [15]) was 31.2 µg/mL (≈ 65.8 µM). For the same compound, the MBC (Staphylococcus aureus [16]) was “inactive”, the MBC (Pseudomonas aeruginosa [17]) was “inactive” and the IC50 (Raoultella planticola [18]) was 5.4 µg/mL (≈ 11.4 µM). For the same compound, the IC50 (Staphylococcus aureus [19]) was “Not Active”.

For `CCCNC(=O)c1nc(-c2ccccc2)c2c(C(F)(F)F)cc(-c3ccccc3)nc2n1`, the MFC (Pichia kudriavzevii [20]) was 31.2 µg/mL (≈ 71.5 µM), the MIC (Candida albicans [21]) was “inactive” and the MIC (Micrococcus luteus [1]) was “inactive”. For the same compound, the MIC (Candida albicans [22]) was “inactive”, the MIC (Candida albicans [23]) was 15.6 µg/mL (≈ 35.7 µM) and the MIC (Staphylococcus aureus [2]) was “inactive”. For the same compound, the MIC (Candida albicans [24]) was 15.6 µg/mL (≈ 35.7 µM), the MIC (Staphylococcus aureus [3]) was “inactive” and the MIC (Pseudomonas aeruginosa [4]) was “inactive”. For the same compound, the MIC (Escherichia coli [5]) was “inactive”, the MIC (Candida parapsilosis [25]) was “inactive” and the MIC (Pichia kudriavzevii [26]) was 15.6 µg/mL (≈ 35.7 µM). For the same compound, the MFC (Candida albicans [27]) was “inactive”, the MIC (Raoultella planticola [6]) was “inactive” and the MIC (Candida albicans [28]) was “inactive”. For the same compound, the MFC ([Candida] aaseri [29]) was 15.6 µg/mL (≈ 35.7 µM), the MFC (Nakaseomyces glabratus [30]) was 15.6 µg/mL (≈ 35.7 µM) and the MIC (Candida albicans [31]) was “inactive”. For the same compound, the MFC (Pichia sporocuriosa [32]) was 62.5 µg/mL (≈ 143 µM), the MFC (Candida albicans [33]) was “inactive” and the MIC (Candida albicans [34]) was 15.6 µg/mL (≈ 35.7 µM). The MFC (Candida albicans [35]) was “inactive”, the MIC (Bacillus subtilis [7]) was “inactive” and the MIC (Pichia sporocuriosa [36]) was 31.2 µg/mL (≈ 71.5 µM). For the same compound, the MFC (Candida albicans [37]) was 31.2 µg/mL (≈ 71.5 µM), the MIC (Candida albicans [38]) was 31.2 µg/mL (≈ 71.5 µM) and the MFC (Candida albicans [39]) was 15.6 µg/mL (≈ 35.7 µM). The MIC (Candida albicans [40]) was 31.2 µg/mL (≈ 71.5 µM), the MFC (Candida parapsilosis [41]) was “inactive” and the MFC (Candida albicans [42]) was “inactive”. For the same compound, the MFC (Candida albicans [43]) was 31.2 µg/mL (≈ 71.5 µM), the MFC (Candida albicans [44]) was 31.2 µg/mL (≈ 71.5 µM) and the MIC (Nakaseomyces glabratus [45]) was 7.8 µg/mL (≈ 17.9 µM). The MIC ([Candida] aaseri [46]) was 15.6 µg/mL (≈ 35.7 µM) and the MFC (Candida albicans [47]) was 62.5 µg/mL (≈ 143 µM).
